Results on eleven compounds are retold here after patent US8841288B2, “Quinolin-4 (1H)-one derivatives as inhibitors of phosphatidylinositol 3-kinases” (Universtà Degli Studi di Torino, priority 2010, dated 2014).

Structures are written as SMILES. Bounds are passed on as bounds.

The target in the assay is p110α (Homo sapiens (Human), UniProt P42336). The experiment in a line: PI3K lipid kinase activity on lipid micelles (ADP-Glo), p110α. It counts as biochemical. The conditions noted are these: 10 μM ATP. The procedure:
a) Some compounds of formula (I) described herein were assayed in vitro for their ability to inhibit the lipid kinase activity of PI3Ks, by using a non-radioactive method.
In details, His and GST-tagged recombinant proteins (purchased from JenaBioscience—Germany; PI3Kα #PR-335, PI3Kβ #PR-344, PI3Kγ #PR-343, PI3Kδ #PR-345) for each isoform PI3Kα, β, γ and δ, were incubated with 10 μM of ATP, with lipid micells containg the appropriate substrate phosphatidylinositol and the phosphatidilserine, and different concentrations of the formula (I) compounds.
After 30 minutes of incubation at room temperature, the amount of ADP produced from ATP following the activation of kinase was measured with a luminescent kinase assay, ADP-Glo™ Kinase Assay (purchased from Promega—USA #V9101).
The luminescent signal positively correlates with the formed ADP and, therefore, with the kinase activity.
Inhibition of PI3K lipid kinase activity is achieved when the amount of ADP—that is correlated with the PI3K activity—in the presence of the assayed compound of formula (I) is lower than the amount detected in the control samples.
For each assayed formula (I) compound, a specific IC50 for each class I PI3K isoform was measured.
The IC50 of a formula (I) compound is the concentration of the compound able to inhibit by 50% the kinase activity of each PI3K isoform.
The IC50 was determined by constructing a dose-response curve and examining the inhibitory effect of different concentrations of the assayed formula (I) compounds on the ADP production.
To evaluate the ability of each compound of formula (I) to inhibit the lipid kinase activity of each PI3K isoform, PI3Kα, β, γ and δ recombinant proteins (30 ng for each assay) were incubated for about 30 minutes with different concentrations of compounds.
Lipid micelles were formed by sonicating a mixture of 1 mg of phosphatidylinositol and 1 mg of phosphatidylserine. Lipid micelles were use as substrate for the PI3K lipid kinase activity. The reaction was started by adding 10 μM of ATP and 10 μM of micelles to each reaction.
After 30 minutes of incubation at room temperature, the reaction was stopped and the amount of ADP produced was measured by using the ADP-glo assay (see above).
On the technique in general: In ADP-Glo the light output rises with the ADP produced.

Sequence of p110α (P42336 whole entry): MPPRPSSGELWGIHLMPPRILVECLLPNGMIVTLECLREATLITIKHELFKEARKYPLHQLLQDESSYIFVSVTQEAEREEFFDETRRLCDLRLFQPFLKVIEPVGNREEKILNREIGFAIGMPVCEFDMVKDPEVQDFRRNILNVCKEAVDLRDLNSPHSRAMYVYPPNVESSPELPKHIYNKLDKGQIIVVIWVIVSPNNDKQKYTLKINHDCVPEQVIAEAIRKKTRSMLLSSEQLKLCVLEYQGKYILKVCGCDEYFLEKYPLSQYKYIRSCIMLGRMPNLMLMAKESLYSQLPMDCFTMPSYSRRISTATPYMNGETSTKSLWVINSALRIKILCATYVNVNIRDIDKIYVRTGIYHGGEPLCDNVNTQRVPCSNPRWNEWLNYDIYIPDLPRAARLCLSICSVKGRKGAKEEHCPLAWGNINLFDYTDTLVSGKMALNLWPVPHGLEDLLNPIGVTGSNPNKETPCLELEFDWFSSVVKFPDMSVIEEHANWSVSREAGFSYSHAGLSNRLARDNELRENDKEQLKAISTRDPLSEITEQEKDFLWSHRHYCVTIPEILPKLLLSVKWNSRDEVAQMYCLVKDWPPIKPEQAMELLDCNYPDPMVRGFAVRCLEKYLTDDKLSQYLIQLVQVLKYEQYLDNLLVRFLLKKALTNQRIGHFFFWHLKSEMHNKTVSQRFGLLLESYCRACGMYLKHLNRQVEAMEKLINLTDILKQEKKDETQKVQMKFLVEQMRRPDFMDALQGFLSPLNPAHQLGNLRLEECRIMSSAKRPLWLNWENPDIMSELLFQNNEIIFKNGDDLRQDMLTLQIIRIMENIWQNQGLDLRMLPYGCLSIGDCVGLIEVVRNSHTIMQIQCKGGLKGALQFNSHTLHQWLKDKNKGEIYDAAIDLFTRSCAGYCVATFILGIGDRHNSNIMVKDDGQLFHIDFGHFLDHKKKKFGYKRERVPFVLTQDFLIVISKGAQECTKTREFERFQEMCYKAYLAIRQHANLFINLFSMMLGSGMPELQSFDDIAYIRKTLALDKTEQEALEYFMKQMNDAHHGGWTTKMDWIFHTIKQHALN
Sequence of p110α (P27986 whole entry partner): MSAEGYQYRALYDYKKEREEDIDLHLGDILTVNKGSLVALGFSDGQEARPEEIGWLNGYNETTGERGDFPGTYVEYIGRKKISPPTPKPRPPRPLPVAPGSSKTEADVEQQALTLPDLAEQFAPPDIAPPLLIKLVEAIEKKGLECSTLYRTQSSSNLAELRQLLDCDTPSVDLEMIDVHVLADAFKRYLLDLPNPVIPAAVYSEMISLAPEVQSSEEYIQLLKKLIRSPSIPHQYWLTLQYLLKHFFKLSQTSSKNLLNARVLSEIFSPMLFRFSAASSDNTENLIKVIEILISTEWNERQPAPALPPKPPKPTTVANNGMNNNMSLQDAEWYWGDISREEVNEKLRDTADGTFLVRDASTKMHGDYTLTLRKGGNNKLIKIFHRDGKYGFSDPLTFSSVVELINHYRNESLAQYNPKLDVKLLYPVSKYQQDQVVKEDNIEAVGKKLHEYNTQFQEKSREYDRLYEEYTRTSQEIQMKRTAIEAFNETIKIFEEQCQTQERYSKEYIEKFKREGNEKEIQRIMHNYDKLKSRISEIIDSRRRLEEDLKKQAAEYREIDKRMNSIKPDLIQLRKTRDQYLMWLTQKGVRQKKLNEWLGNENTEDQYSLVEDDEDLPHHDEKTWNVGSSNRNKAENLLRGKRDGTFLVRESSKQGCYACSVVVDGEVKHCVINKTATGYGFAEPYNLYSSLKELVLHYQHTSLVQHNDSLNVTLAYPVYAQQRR

The IC50 is the concentration that inhibits the measured activity by half. Lower therefore signals greater potency in that assay. For `O=c1cc(N2CCOCC2)[nH]c2c(-c3cn(-c4ccccc4)nn3)cccc12` [CL1, 2-morpholino-8-(1-phenyl-1h-1,2,3-triazol-4-yl)quinolin-4(1H)-one], the IC50 amounted to 0.73 µM.
In turn, `O=c1cc(N2CCOCC2)[nH]c2c(-c3cn(Cc4ccccc4)nn3)cccc12` [CL5, 8-(1-benzyl-1H-1,2,3-triazol-4-yl)-2-morpholinoquinolin-4(1H)-one] had an IC50 of 0.26 µM.
Compound `N#CCc1ccc(-n2cc(-c3cccc4c(=O)cc(N5CCOCC5)[nH]c34)nn2)cc1` [CL12, 2-(4-(4-(2-morpholino-4-oxo-1,4-dihydroquinolin-8-yl)-1H-1,2,3-triazol-1-yl)phenyl) acetonitrile] showed an IC50 of 0.1 µM.
Under `O=C(O)c1cccc(Cn2cc(-c3cccc4c(=O)cc(N5CCOCC5)[nH]c34)nn2)c1` [CL27e, 3-((4-(2-morpholino-4-oxo-1,4-dihydroquinolin-8-yl)-1H-1,2,3-triazol-1-yl)methyl)benzoic acid] stands 0.02 µM; under `O=C(O)c1ccc(-n2cc(-c3cccc4c(=O)cc(N5CCOCC5)[nH]c34)nn2)cc1` [CL29a, 4-(4-(2-morpholino-4-oxo-1,4-dihydroquinolin-8-yl)-1H-1,2,3-triazol-1-yl)benzoic acid], 0.32 µM; under `O=C(O)CCCn1cc(-c2cccc3c(=O)cc(N4CCOCC4)[nH]c23)nn1` [CL55a, 4-(4-(2-morpholino-4-oxo-1,4-dihydroquinolin-8-yl)-1H-1,2,3-triazol-1-yl)butanoic acid], 0.1 µM.
`O=C(O)c1cccc(-n2cc(-c3cccc4c(=O)cc(N5CCOCC5)[nH]c34)nn2)c1` [CL55b, 3-(4-(2-morpholino-4-oxo-1,4-dihydroquinolin-8-yl)-1H-1,2,3-triazol-1-yl)benzoic acid] returned an IC50 of 0.1 µM.
Regarding `O=C(O)CCCCn1cc(-c2cccc3c(=O)cc(N4CCOCC4)[nH]c23)nn1` [CL64a, 5-(4-(2-morpholino-4-oxo-1,4-dihydroquinolin-8-yl)-1H-1,2,3-triazol-1-yl)pentanoic acid], the half-inhibitory concentration (IC50) came out at 0.1 µM.
Regarding `O=C(NCc1ccccc1)c1cccc(Cn2cc(-c3cccc4c(=O)cc(N5CCOCC5)[nH]c34)nn2)c1` [CL129a, N-benzyl-3-((4-(2-morpholino-4-oxo-1,4-dihydroquinolin-8-yl)-1H-1,2,3-triazol-1-yl)methyl) benzamide], the IC50 worked out at 0.14 µM.
The same measure for `Cc1cc(F)ccc1Oc1cccc2c(=O)cc(N3CCOCC3)[nH]c12` [TGX155, reference compound]: above 20 µM.
In the case of `O=c1cc(N2CCOCC2)[nH]c2c(-c3cn(-c4ccccc4O)nn3)cccc12` [TP714, 8-(1-(2-hydroxyphenyl)-1H-1,2,3-triazol-4-yl)-2-morpholinoquinolin-4(1H)-one], half-maximal inhibition (IC50) required 0.26 µM.
